Results: article PMC12346692, “SUL-150 Limits Vascular Remodeling and Ventricular Failure in Pulmonary Arterial Hypertension” (International Journal of Molecular Sciences, 2025)
Values joined by “and” are separate entries in the source; they are usually repeats but may differ in a detail not shown here. Equal entries are not always repeated. Marks after values point to notes of the source that are not given here.

Legend:
[1] = tested on: PAH rats; test: Echocardiogram and hemodynamic measurements in monocrotaline + aortocaval shunt PAH rats; assay type: in vivo, rat; design: LVOT VTI / PV Acceleration slope: unit not given here
Procedure: Animal care and experiments were approved by the Institutional Animal Care and Use Committee (CCD # AVD105002015129) and in accordance with the ARRIVE guidelines. Forty (40) male Wistar rats (Harlan, 7–9 weeks old, weighing 276 ± 15 g) were used. PAH was induced by a single i.p. injection of monocrotaline (60 mg·kg^−1) and the placement of an aortocaval shunt one week later as described previously.
The administration of vehicle and SUL-150 started 7 days post-monocrotaline injection and was performed by the i.p. implantation of osmotic minipumps (Alzet model #2004, Durect Corp., Cupertino, CA, USA) at the time of aortocaval shunt placement. The Lynch coil method was used to circumvent compatibility issues with the osmotic minipump reservoir as described previously. Vehicle (dimethyl sulfoxide (DMSO) or SUL-150 ((R)-(6-hydroxy-2,5,7,8-tetramethylchroman-2-yl)(piperazin-1-yl)methanone, 0.9 M in DMSO, Sulfateq BV, Groningen, The Netherlands) was administered at a flow rate of 0.25 µL·h^−1, accumulating to an approximate dose of 6 mg·kg^−1·day^−1 SUL-150 in a 300 g rat. Animals were weighed, watched for dyspnea, cyanosis, and oedema, and sacrificed preterm when a 15% weight loss or debilitating dyspnea occurred.
Echocardiographic (ECG) examination was performed under isoflurane anesthesia (5% in air during induction, 2% in air during maintenance) via inhalation prior to euthanisation using a Vivid Dimension 7 system and 10S-transducer (GE Healthcare, Waukesha, WI, USA). Ventricular dimensions, eccentricity index, and flow profiles over the aortic, pulmonary, and tricuspid valves were measured in standard views. Cardiac output (mL·min^−1) was calculated using the following equation: CO(mL·min^−1)=(LVOTarea×LVOTVTI)×HR , wherein LVOT area is the area of the left ventricular outflow tract, LVOT VTI is the velocity-time integral and HR is heart rate. Subsequent to ECG, invasive hemodynamic measurements were performed using a closed chest technique as described by others. A fluid-filled pressure catheter was inserted into the right internal jugular vein and guided to the pulmonary artery under pressure waveform monitoring using a bedside monitor. Right ventricular systolic and diastolic pressure, pulmonary arterial pressures, and pulmonary wedge pressure were measured. Mean pulmonary arterial pressure (mmHg) was calculated as: mPAP(mmHg)=(2/3dPAP+1/3sPAP) , wherein dPAP and sPAP are diastolic and systolic pulmonary artery pressure, respectively. Total pulmonary vascular resistance was estimated as: PVRmmHg·mL·min^−1=(mPAP−PCWP)/CO , wherein mPAP, mPWP, and CO are mean pulmonary artery pressure, pulmonary capillary wedge pressure, and cardiac output, respectively.

[2] = tested on: PGC1α, mtTFA, PINK1, Parkin; test: Immunoblotting of right ventricle for mitogenesis and mitophagy markers; assay type: in vivo, rat; conditions: PAH rats, ~6 mg·kg^−1·day^−1 i.p. minipump, 28 days; result in words
Procedure: Protein lysates were prepared from the right ventricle using RIPA buffer (ThermoFisher, Waltham, MA, USA) and supplemented with 0.5% proteinase inhibitor cocktail (Sigma-Aldrich, St. Louis, MO, USA) and 0.5% Halt™ phosphatase inhibitor (ThermoFisher, Waltham, MA, USA). […] Twenty micrograms of total protein per sample was loaded on mini-PROTEAN precast gradient gels (4–15% denaturing SDS–polyacrylamide gel; Bio-Rad, Hercules, CA, USA), separated by gel electrophoresis, and blotted onto nitrocellulose membrane using the Trans-Blot turbo system (Bio-Rad, Hercules, CA, USA) according to standard protocols. Blots were blocked with 5% bovine serum albumin in 20 mM Tris-HCl (pH 7.4) at room temperature for 30 min and incubated at 4 °C overnight with primary antibodies to mtTFA (sc-166965, Santa Cruz Biotechnology, Dallas, TX, USA), PGC1α (NBP1-04676, Bio-Techne, Abingdon, UK), PINK1 (BC100-494, Bio-Techne, Abingdon, UK), Parkin (sc-32282, Santa Cruz Biotechnology, Dallas, TX, USA), or Tubulin (Sigma-Aldrich, St. Louis, MO, USA), all at a dilution of 1:500. Alkaline phosphatase-conjugated secondary antibodies and NBT/BCIP (Bio-Rad, VA, USA) were used for detection. Densitometric analysis was performed using Totallab 120 (Nonlinear Dynamics, Newcastle upon Tyne, UK).

[3] = tested on: α1-adrenoceptor; design: method as in PMID 30626882; conditions: no test in this paper; α1 antagonism attributed; cited from earlier work
[4] = PAH rats, ~6 mg·kg^−1·day^−1 i.p. minipump, 28 days
[5] = PAH rats, ~6 mg·kg^−1·day^−1 i.p. minipump, 28 days, echocardiography
[6] = PAH rats, ~6 mg·kg^−1·day^−1 i.p. minipump, 28 days, result in words
[7] = SUL-150-treated versus vehicle-treated PAH rats

Cc1c(C)c2c(c(C)c1O)CC[C@](C)(C(=O)N1CCNCC1)O2 [SUL-150, (R)-(6-hydroxy-2,5,7,8-tetramethylchroman-2-yl)(piperazin-1-yl)methanone]
Pulmonary artery pressure, Diastolic [1, 4]: 19.0 ± 5.7 mmHg | Pulmonary artery pressure, Mean (mPAP) [1, 4]: 27.7 mmHg and 27.7 ± 5.8 mmHg and 27.7 ± 5.8 ^a mmHg | Pulmonary wedge pressure, Mean [1, 4]: 4.8 ± 1.9 mmHg | Tricuspid valve insufficiency, Average grade (0–3) [1, 4]: 1.0 ± 1.0 ^a,b | Tricuspid valve insufficiency, Mild [1, 4]: 14.3% | Tricuspid valve insufficiency, Moderate [1, 4]: 42.9% | Tricuspid valve insufficiency, Severe [1, 4]: 0% | Vascular resistance, Pulmonary ([1]; PAH rats, ~6 mg·kg^−1·day^−1 i.p. minipump, 28 days, (mPAP−PCWP)/CO): 0.12 ± 0.05 mmHg·min·mL^−1 | LVIDd [1, 5]: 4.27 ± 0.46 mm | LVOT Pmax [1, 5]: 5.57 ± 3.73 mmHg | LVOT VTI [1, 5]: 6.16 ± 2.33 | LVOT Vmax [1, 5]: 1.12 ± 0.39 m·s^−1 | LVOT diameter [1, 5]: 3.37 ± 0.24 ^b mm | PAAT [1, 5]: 17.07 ± 4.17 ms | PV Acceleration slope [1, 5]: 65.37 ± 19.75 | PV Pmax [1, 5]: 5.74 ± 1.50 mmHg | PV Vmax [1, 5]: 1.14 ± 0.19 m·s^−1 | RVIDd [1, 5]: 3.87 ± 1.37 ^b mm | RVIDd/LVIDd ratio [1, 5]: 0.92 ± 0.35 | TAPSE [1, 5]: 2.90 ± 0.49 ^b mm | cardiac output [1, 6]: normalized | heart rate [1, 6]: normalized | decrease in diastolic pulmonary artery pressure compared to PAH rats [1, 7]: 25% | decrease in right ventricle inner diameter in diastole versus PAH rats [1, 7]: 38% | decrease in right ventricular pressure at diastole versus PAH rats [1, 7]: 52% | increase in stroke volume compared to vehicle-treated PAH rats [1, 7]: 68% | right ventricular protein expression of PGC1α and mtTFA [2]: did not alter | right ventricular protein expression of PINK1 and Parkin [2]: maintained the expression | pA2 as an α1-adrenoceptor antagonist [3]: ≈ 5.4
